In assay [1] the test system is azoxymethane-induced aberrant crypt foci in rat colon. Nature of the assay: Aberrant crypt foci (ACF) study in azoxymethane-treated rats, Example 1. Format: in vivo, male Fisher 344 weanling rats. The following applies: for Total ACF / Number of foci with 1 aberrant crypt per focus / Number of foci with 2 aberrant crypts per focus / Number of foci with 4 aberrant crypts per focus / Number of foci with 5(+) (5 and more) aberrant crypts per focus / Number of foci with 3 aberrant crypts per focus: Example 1, Table 3; for Total ACF / Number of foci with 1 aberrant crypt per focus / Number of foci with 2 aberrant crypts per focus / Number of foci with 4 aberrant crypts per focus / Number of foci with 5(+) (5 and more) aberrant crypts per focus / Number of AOM-induced ACF in rat colon in proximal part / Number of AOM-induced ACF in rat colon in distal part / Number of AOM-induced ACF in rat colon in total ACF in colon / Number of foci with 3 aberrant crypts per focus: Means ± SE, n=10; for Number of foci with 1 aberrant crypt per focus / Number of foci with 2 aberrant crypts per focus / Number of foci with 4 aberrant crypts per focus / Number of foci with 5(+) (5 and more) aberrant crypts per focus / Number of foci with 3 aberrant crypts per focus: proximal and distal colon; for Number of AOM-induced ACF in rat colon in proximal part / Number of AOM-induced ACF in rat colon in distal part / Number of AOM-induced ACF in rat colon in total ACF in colon: diet 13 weeks, inulin 100 g/kg and/or NSAID 0.2 g/kg diet; for Number of AOM-induced ACF in rat colon in proximal part: AOM 16mg/kg s.c. at 7 and 8 weeks of age; for Number of AOM-induced ACF in rat colon in distal part / Number of AOM-induced ACF in rat colon in total ACF in colon: AOM 16mg/kg s.c. As for the experimental part:
The inulin used was Synergy1 (in short Syn1) and Synergy2 (in short Syn2), which are mixtures of oligofructose (RAFTILOSE®) and inulin of av. DP of 23 to 25 (RAFTILINE®) with a total content of inulin with a DP 9 and DP 10 of maximally 5 % by weight, at a weight ratio of 1:1 and 1:2, respectively, obtained from ORAFTI (Belgium) (RAFTILOSE® and RAFTILINE® are trade names of RT/TS, Belgium). The diets were prepared fresh every week and stored at 4°C until fed. The experimental diets were formulated based on AIN 93G diets. The ingredients were obtained from ICN Biomedicals, Aurora, OH, USA. All other chemicals were obtained from Sigma Chemical Co., St. Louis, MO, USA. All the protocols involving rats have been approved by the Institutional Animal Care and Use Committee of Alabama A& M University.
(§1) After 1 week of acclimatisation, 100 male Fisher 344 weanling rats were divided into 10 groups of 10 rats per group and assigned the AIN93G (Control) diet or the experimental diets for 13 weeks. For the study, temperature was maintained at 21°C ± 1°C, relative humidity at 50%, and light and dark cycles at 12 hours each. Feed and water were provided ad libitum. Weekly body weights and daily feed intake were recorded. After adaptation, all animals received two subcutaneous injections of azoxymethane (AOM) in saline at 16mg/kg body weight at 7 and 8 weeks of age. At the end of the feeding period, the animals were sacrificed using CO2 euthanasia after an overnight's fast. Accordingly, the colons of the rats were removed, flushed with potassium phosphate buffer 0.1M (pH 7.2) and examined for aberrant crypt foci (ACF) and tumours.

Another assay concerns colorectal adenomas. The note with it: patients with familial adenomatous polyposis; cited from earlier work.
The subject of assay [2] is azoxymethane-induced aberrant crypt foci in rat colon. As to the kind of experiment: Aberrant crypt foci (ACF) study in azoxymethane-treated rats, Example 2 (same protocol as Example 1). Format: in vivo, Fisher 344 male rats. As to the method:
as §1
In example 2, experiments similar to the ones of example 1 were carried out, to examine the anti-cancer effects of a composition containing a combination of RAFTILINE® HP and sulindac. The 4 groups each of 10 Fisher 344 male rats were given a diet containing either control diet, control diet + RAFTILINE®HP, control diet + sulindac, or control diet + RAFTILINE®HP + sulindac (RAFTILINE® : trade name of RT/TS, Belgium). The protocol of the experiments was the same as the one of example 1.

The mark [3] stands for this setting: Example 2, Table 6, Means ± SEM.
[4] abbreviates: Example 2, inulin 100 g/kg and/or sulindac 0.2 g/kg diet, Means ± SE, n as indicated.

Structures are written as SMILES. Marks after values point to notes of the source that are not given here.

For the compound `CN1C(C(=O)Nc2ccccn2)=C(O)c2ccccc2S1(=O)=O` [Piroxicam], in assay [1], the “Total ACF” value was 62.64 ± 2.86^c, the “Number of foci with 1 aberrant crypt per focus” value is 4.18 ± 1.04^c, the “Number of foci with 2 aberrant crypts per focus” value is 13.16 ± 1.54^b and the “Number of foci with 4 aberrant crypts per focus” value is reported as 14.78 ± 1.94^c. The “Number of foci with 5(+) (5 and more) aberrant crypts per focus” value (from here on “Number of foci with 5(+) … per focus”) in assay [1] is listed as 14.24 ± 0.94^b. In assay [1] (Example 1), the “Number of AOM-induced ACF in rat colon in proximal part” value (shortened to “Number … in proximal part”) is on record as 12.16 ± 1.04^b, the “Number of AOM-induced ACF in rat colon in distal part” value (“Number … in distal part” below) is recorded as 50.48 ± 1.09^b and the “Number of AOM-induced ACF in rat colon in total ACF in colon” value (“Number … in total ACF in colon” below) is given as 62.64 ± 2.86^c.
Consider `CC1=C(CC(=O)O)c2cc(F)ccc2/C1=C\c1ccc([S+](C)[O-])cc1` (centres unmarked) [Sulindac], for which, in the assay on colorectal adenomas, the “number and size of colorectal adenomas compared to patients given placebo” value was “significantly reduce the number and size of colorectal adenomas”. Moreover, in assay [2] (Example 2), the “overall reduction in ACF (total colon) compared to the control diet” value is on record as “about 52%”, the “reduction of ACF in the distal colon compared to the control diet group” value is on record as “about 44%” and the “reduction of ACF in the proximal colon compared to the control diet group” value is given as “about 74%”. For the same compound, in assay [2] (setting [3]), the “Number of foci with 1 aberrant crypt per focus” value is 3.50 ± 0.38 ^b, the “Number of foci with 2 aberrant crypts per focus” value is listed as 11.67 ± 1.19^b, the “Number of foci with 3 aberrant crypts per focus” value is 22.17± 1.03 ^c and the “Number of foci with 4 aberrant crypts per focus” value is listed as 22.50 ± 0.86^b. Moreover, in assay [2] (setting [3]), the “Number of foci with 5(+) … per focus” value was 15.33 ± 0.45 ^c; the “Total ACF” value is listed as 75.08 ± 1.93^d. Besides, in assay [2] (Example 2, statement in text), the “foci with 3, 4 and 5 or more aberrant crypts compared to the other groups” value is “significantly lower (p<0.05)”. Further, in assay [2] (setting [4]), the “Number … in distal part” value is reported as 64.50 ± 1.54^d; the “Number … in proximal part” value is recorded as 10.58 ± 0.90^c; the Number of AOM-induced ACF in rat colon, Total ACF in colon came to 75.1 ± 1.93. Moreover, in assay [1], the “Total ACF” value is recorded as 73.87 ± 4.25 ^b, the “Number of foci with 1 aberrant crypt per focus” value is listed as 4.08 ± 0.48^c, the “Number of foci with 2 aberrant crypts per focus” value was 12.14± 2.04^b and the “Number of foci with 3 aberrant crypts per focus” value was 20.37 ± 2.40^b. In addition, in assay [1], the “Number of foci with 4 aberrant crypts per focus” value is reported as 20.48 ± 2.48^b; the “Number of foci with 5(+) … per focus” value is recorded as 16.80 ± 0.78^b. Besides, in assay [1] (Example 1), the “Number … in proximal part” value was 11.24 ± 0.90^b, the “Number … in distal part” value was 62.58 ± 1.68^b and the “Number … in total ACF in colon” value was 73.87 ± 4.25 ^b. Besides, in assay [1] (Example 1, inulin at 10 % level and/or NSAID in diet), the “reduction of the incidence of ACF compared to the controls” value is listed as “about 53%”.
For the compound `CC(=O)Oc1ccccc1C(=O)O` [Aspirin, acetyl salicylate], in assay [1], the “Total ACF” value is given as 64.40 ± 3.46^c, the “Number of foci with 1 aberrant crypt per focus” value is listed as 6.50 ± 1.12^b, the “Number of foci with 2 aberrant crypts per focus” value is 12.48 ± 1.23^b and the “Number of foci with 3 aberrant crypts per focus” value is reported as 17.42 ± 1.94^b. For the same compound, in assay [1], the “Number of foci with 4 aberrant crypts per focus” value is given as 15.86 ± 1.82^c; the “Number of foci with 5(+) … per focus” value is 12.14 ± 0.86^b. Also, in assay [1] (Example 1), the “Number … in proximal part” value is 10.26 ± 1.11^b, the “Number … in distal part” value is given as 54.14 ± 1.96^b and the “Number … in total ACF in colon” value is 64.40 ± 3.46^c.

The values above are taken from EP1428528A1, “Synergistic combinations of dietary fiber and NSAIDs for the treatment of cancer” (Tiense Suikerraffinaderij N.V., priority 2002, dated 2004).
